{"source": "paper PMC8933379", "about": "“Evaluation of the absolute oral bioavailability of the anaplastic lymphoma kinase/c-ROS oncogene 1 kinase inhibitor lorlatinib in healthy participants” (Cancer Chemotherapy and Pharmacology, 2021)", "test": "Absolute oral bioavailability crossover study: plasma pharmacokinetics (LC-MS/MS, non-compartmental analysis)", "type": "in vivo, human", "conditions": "for half-life: read-out: t½ (plasma terminal half-life) (converted); for Tmax: median (range)", "protocol": "This was an open-label, phase 1, randomized two-sequence, two-treatment, two-period, crossover study in healthy participants. Approximately 12 participants were to be randomized in a 1:1 ratio to receive one of two treatment sequences: lorlatinib 50 mg IV dose (Treatment A) followed by a lorlatinib 100 mg single oral dose (Treatment B), or lorlatinib oral dose followed by lorlatinib IV dose. The IV dose is 100% bioavailable and was, therefore, considered to be the reference in this study. The reference lorlatinib 50 mg single IV dose was administered as 250 mL IV solution (0.20 mg/mL) over approximately 1.25 h at a constant rate in the morning of Day 1. Lorlatinib 100 mg single oral dose was administered as 4 × 25 mg immediate-release free base tablets in the morning of Day 1 with 240 mL ambient temperature water. Participants were instructed to swallow the lorlatinib tablets whole and to not manipulate or chew the tablets prior to swallowing. Both treatments were administered after an overnight fast of at least 10 h. To standardise the conditions on PK sampling days, during the first 4 h after dosing or start of the IV dose, participants were to refrain from eating and drinking beverages other than water or lying down (unless required for safety monitoring). Period 1 was defined as a 7-day period in which participants received Treatment A or B. Period 2 was defined as the 7-day period after Period 1, in which participants received the alternative treatment to before. Following treatment administration, participants were to undergo PK sampling for 144 h with a washout period of at least 10 days between successive lorlatinib doses. The study was conducted at a single Pfizer Clinical Research Unit (CRU) in New Haven, Connecticut, and participants were confined to the CRU from the time of admission (Day 0) until discharge (Day 7 of Period 2).\nThe detection range was 0.05–50 ng/mL or 1 to 1000 ng/mL for low and high concentration samples, respectively. […] Calibration standard responses were linear over the range of 2.50–2500 ng/mL; using a weighted (l/concentration^2) linear least squares regression. […] The lower limit of quantification (LLOQ) for lorlatinib and its metabolite was 2.50 ng/mL.\nPK parameter values were calculated using an internally validated software system (eNCA). Actual sample collection times were used for the PK parameter analysis and samples below the LLOQ were set to 0. Maximum observed plasma concentration, Cmax, and time when Cmax was reached, Tmax, were determined from the observed values. The area under the curve (AUC) from time 0 to the time of the last quantifiable concentration (AUClast) was estimated using the linear/log trapezoidal method. AUCinf was calculated as AUClast + (Clast/kel), where Clast was the predicted plasma concentration at the last quantifiable time point estimated from the log-linear regression analysis and kel was the terminal phase rate constant calculated by a linear regression of the log-linear concentration–time curve. PK parameters based on terminal phase estimation were reported only where a well-characterized terminal phase was observed. A well-characterized terminal phase is defined as one with at least three data points, r^2 ≥ 0.9, and AUCextrap% ≤ 20. Metabolite-to-parent ratios were calculated after adjustment for molecular weights. Clearance (CL) for the IV dose and CL/F for the oral dose were calculated as dose/AUCinf. Volume of distribution during the terminal phase (area) was calculated as IV dose/(kel×AUCinf).\nThe hepatic extraction ratio was calculated for each participant as the hepatic blood clearance divided by hepatic blood flow.\nSummary profiles (mean) of the lorlatinib plasma concentration–time data were plotted by treatment. Nominal PK sampling time was used for summary statistics and summary plots by sampling time.", "key": {"[1]": {"conditions": "100 mg oral tablets vs 50 mg IV, healthy participants, n = 11"}, "[2]": {"conditions": "lorlatinib 100 mg oral tablets, n = 11, geometric mean (geometric %CV)"}}, "note": "Read-outs that look alike come from different tables or passages of the source.", "data": [{"smiles": "C[C@H]1Oc2cc(cnc2N)-c2c(nn(C)c2C#N)CN(C)C(=O)c2ccc(F)cc21", "note": "[Lorlatinib, (10R)-7-amino-12-fluoro-2,10,16-trimethyl-15-oxo-10,15,16,17-tetrahydro-2H-8,4-(metheno)pyrazolo[4,3-h][2,5,11]-benzoxadiazacyclotetradecine-3-carbonitrile]", "values": [{"measurement": "Absolute oral bioavailability: ratio (test/reference) of adjusted means, AUCinf (dn)", "setting": "[1]", "value": 80.78, "unit": "%"}, {"measurement": "Ratio (test/reference) of adjusted means, AUClast (dn)", "setting": "[1]", "value": 81.65, "unit": "%"}, {"measurement": "Absolute oral bioavailability: ratio (test/reference) of adjusted means, AUCinf (dn)", "setting": "100 mg oral tablets vs 50 mg IV, healthy participants, n = 11, listed as lorlatinib", "value": 81, "unit": "%"}, {"measurement": "Inter-subject variability (%CV) for AUCinf, AUClast and Cmax", "setting": "both oral administration and IV dosing", "value": "30–38%"}, {"measurement": "AUC(0-inf)", "setting": "human, plasma, iv, 50 mg, Reference, lorlatinib 50 mg IV, mixed-effects model, read-out: AUCinf (dn), adjusted geometric mean", "value": 5190, "unit": "ng·h/mL"}, {"measurement": "AUC(0-t)", "setting": "human, plasma, iv, 50 mg, Reference, lorlatinib 50 mg IV, mixed-effects model, read-out: AUClast (dn), adjusted geometric mean", "value": 5030, "unit": "ng·h/mL"}, {"measurement": "AUC(0-inf)", "setting": "human, plasma, iv, 50 mg, lorlatinib 50 mg IV, dose normalized, n = 11, geometric mean (geometric %CV), read-out: AUCinf (dn)", "value": 5150, "unit": "ng·h/mL"}, {"measurement": "AUC(0-t)", "setting": "human, plasma, iv, 50 mg, lorlatinib 50 mg IV, dose normalized, n = 11, geometric mean (geometric %CV), read-out: AUClast (dn)", "value": 4990, "unit": "ng·h/mL"}, {"measurement": "half-life", "setting": "human, plasma, iv, 50 mg, lorlatinib 50 mg IV, n = 11, arithmetic mean ± SD", "value": 27, "unit": "h"}, {"measurement": "AUC(0-inf)", "setting": "human, plasma, iv, 50 mg, lorlatinib 50 mg IV, n = 11, geometric mean (geometric %CV), read-out: AUCinf", "value": 5150, "unit": "ng·h/mL"}, {"measurement": "AUC(0-t)", "setting": "human, plasma, iv, 50 mg, lorlatinib 50 mg IV, n = 11, geometric mean (geometric %CV), read-out: AUClast", "value": 4990, "unit": "ng·h/mL"}, {"measurement": "AUC(0-inf)", "setting": "human, plasma, oral, 100 mg, Test, lorlatinib 100 mg oral tablets, mixed-effects model, normalized to 50 mg IV dose, read-out: AUCinf (dn), adjusted geometric mean", "value": 4190, "unit": "ng·h/mL"}, {"measurement": "half-life", "setting": "human, plasma, po, 100 mg, lorlatinib 100 mg oral tablets, n = 11, arithmetic mean ± SD", "value": "~25.5", "unit": "h"}, {"measurement": "AUC(0-inf)", "setting": "human, plasma, po, 100 mg, lorlatinib 100 mg oral tablets, single dose, fasted, n = 11, geometric mean (geometric %CV), read-out: AUCinf", "value": 8290, "unit": "ng·h/mL"}, {"measurement": "Cmax", "setting": "human, plasma, lorlatinib 50 mg IV, dose normalized, n = 11, geometric mean (geometric %CV), read-out: Cmax (dn)", "value": 392, "unit": "ng/mL"}, {"measurement": "clearance", "setting": "human, plasma, lorlatinib 50 mg IV, n = 11, geometric mean (geometric %CV)", "value": 162, "unit": "mL/min"}, {"measurement": "Vd", "setting": "human, plasma, lorlatinib 50 mg IV, n = 11, geometric mean (geometric %CV), read-out: Vss", "value": 305, "unit": "L"}, {"measurement": "Tmax", "setting": "human, plasma, lorlatinib 50 mg IV, n = 11, read-out: Tmax", "value": 1.28, "unit": "h"}, {"measurement": "Vd/F", "setting": "human, plasma, lorlatinib 100 mg oral tablets, n = 11, geometric mean (geometric %CV), read-out: Vz/F", "value": 440, "unit": "L"}, {"measurement": "Cmax", "setting": "lorlatinib 50 mg IV, n = 11, geometric mean (geometric %CV)", "value": 392, "unit": "ng/mL"}, {"measurement": "t½ (plasma terminal half-life)", "setting": "lorlatinib 100 mg oral tablets, n = 11, arithmetic mean ± SD", "value": "25.54 ± 3.75", "unit": "h"}, {"measurement": "AUClast", "setting": "[2]", "value": "8109 (33) ng.h/mL"}, {"measurement": "CL/F", "setting": "[2]", "value": "12.05 (34) L/h"}, {"measurement": "Cmax", "setting": "[2]", "value": 501, "unit": "ng/mL"}, {"measurement": "Tmax", "setting": "lorlatinib 100 mg oral tablets, n = 11", "value": "1.50 (1.00–4.02) h"}, {"measurement": "Eh (hepatic extraction ratio)", "setting": "printed in the 100 mg oral column, plasma clearance × blood-to-plasma ratio 0.985 / hepatic blood flow 90 L/hr, geometric mean (geometric %CV)", "value": 0.118}]}]}
